Literature values, collected in patent US20120232274A1, “PROCESS FOR PREPARATION OF CLOPIODOGREL BISULFATE FORM-1” (PHARMAZELL GMBH, priority 2009, published 2012).

Assays:
[1] = Form 2 compared with Form 1 of Clopidogrel bisulfate
[2] = Form 2 compared with Form 1 of Clopidogrel bisulfate; remark: listed apart in the source

SMILES: COC(=O)[C@H](c1ccccc1Cl)N1CCc2sccc2C1 [Form 2, Clopidogrel bisulfate]
- thermodynamic stability [1]: greater thermodynamic stability
- solubility [2]: lower solubility than Form 1
